44 compounds from US7790721B2, “Pyrroloquinoxalinone inhibitors of poly(ADP-ribose)polymerase” (Abbott Laboratories, priority 2006, dated 2010) can be followed below.

T1 sequence (P09874 whole entry): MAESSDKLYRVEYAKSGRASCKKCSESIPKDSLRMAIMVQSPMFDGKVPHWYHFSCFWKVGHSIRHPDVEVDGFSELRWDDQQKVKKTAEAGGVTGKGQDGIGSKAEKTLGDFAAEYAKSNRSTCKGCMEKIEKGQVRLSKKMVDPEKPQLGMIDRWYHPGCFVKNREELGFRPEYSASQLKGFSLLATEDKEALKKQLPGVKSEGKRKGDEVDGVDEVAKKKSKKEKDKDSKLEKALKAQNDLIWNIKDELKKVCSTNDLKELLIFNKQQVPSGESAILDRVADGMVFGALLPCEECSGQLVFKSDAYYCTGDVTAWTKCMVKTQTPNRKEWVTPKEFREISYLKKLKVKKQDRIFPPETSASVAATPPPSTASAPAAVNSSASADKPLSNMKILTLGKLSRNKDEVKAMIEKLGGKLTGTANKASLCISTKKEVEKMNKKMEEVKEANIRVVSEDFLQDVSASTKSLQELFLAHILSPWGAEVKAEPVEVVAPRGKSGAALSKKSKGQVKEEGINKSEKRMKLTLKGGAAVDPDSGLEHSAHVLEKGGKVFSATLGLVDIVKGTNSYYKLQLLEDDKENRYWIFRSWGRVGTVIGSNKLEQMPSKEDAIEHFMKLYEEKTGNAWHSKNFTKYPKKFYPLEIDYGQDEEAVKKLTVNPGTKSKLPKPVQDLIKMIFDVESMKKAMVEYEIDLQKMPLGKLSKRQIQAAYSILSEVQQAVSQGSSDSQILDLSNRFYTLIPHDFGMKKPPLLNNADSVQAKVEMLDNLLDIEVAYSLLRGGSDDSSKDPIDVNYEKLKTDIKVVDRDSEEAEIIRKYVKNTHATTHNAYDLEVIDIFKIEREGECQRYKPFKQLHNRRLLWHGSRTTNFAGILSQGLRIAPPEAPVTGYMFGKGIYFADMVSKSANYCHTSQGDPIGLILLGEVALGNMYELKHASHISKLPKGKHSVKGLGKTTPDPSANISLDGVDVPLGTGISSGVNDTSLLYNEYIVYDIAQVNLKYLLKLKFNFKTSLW

One test has as its target T1, PARP-1 (Homo sapiens, UniProt P09874).
T1 construct: purchased Trevigen (Gaithersburg, Md.); host or cells: E. coli
Kind of test: PARP1 assay (inhibition of PARP, [3H]-NAD+ / biotinylated histone H1, FlashPlate scintillation). It counts as biochemical.
Conditions: not given
`O=c1[nH]c2cc(CNCc3ccccc3)ccc2n2cccc12` [Example 11, 7-((benzylamino)methyl)pyrrolo[1,2-a]quinoxalin-4(5H)-one] returned an inhibition constant (Ki) of 127 nM.

Staying with this test, now noted: recombinant human PARP, 1 nM enzyme, 1.5 μM [3H]-NAD+; inhibition curves at various substrate concentrations; read-out: PARP-1 (Ki).
In the case of “8-(((2-ethoxyethyl)(methyl)amino)methyl)-5,6-dihydro-4H-pyrrolo[1,2-a][1,4]benzodiazepin-4-one [Example 30]”, the Ki came to 2650 nM.
`O=c1[nH]c2cc(CNC3CCCCC3)ccc2n2cccc12` [Example 1, 7-((cyclohexylamino)methyl)pyrrolo[1,2-a]quinoxalin-4(5H)-one]: the Ki is 474 nM.
As for `O=c1[nH]c2cc(CNCC3CCCCC3)ccc2n2cccc12` [Example 2, 7-(((cyclohexylmethyl)amino)methyl)pyrrolo[1,2-a]quinoxalin-4(5H)-one], the Ki was 91 nM.
Turning to `O=c1[nH]c2cc(CNC3CCC3)ccc2n2cccc12` [Example 3, 7-((cyclobutylamino)methyl)pyrrolo[1,2-a]quinoxalin-4(5H)-one], the Ki is 83 nM.
Regarding `O=c1[nH]c2cc(CNC3CCCC3)ccc2n2cccc12` [Example 4, 7-((cyclopentylamino)methyl)pyrrolo[1,2-a]quinoxalin-4(5H)-one], the Ki is 179 nM.
Turning to `O=c1[nH]c2ccc(CNC3CCCCC3)cc2n2cccc12` [Example 8, 8-((cyclohexylamino)methyl)pyrrolo[1,2-a]quinoxalin-4(5H)-one], the Ki is 99 nM.
For `O=c1[nH]c2ccc(CNCC3CCCCC3)cc2n2cccc12` [Example 9, 8-(((cyclohexylmethyl)amino)methyl)pyrrolo[1,2-a]quinoxalin-4(5H)-one], the Ki amounted to 206 nM.
Turning to `O=c1[nH]c2ccc(CNCCc3ccccc3)cc2n2cccc12` [Example 14, 8-(((2-phenylethyl)amino)methyl)pyrrolo[1,2-a]quinoxalin-4(5H)-one], the Ki was 98 nM.
Turning to `O=c1[nH]c2ccc(CNC3CCC3)cc2n2cccc12` [Example 16, 8-((cyclobutylamino)methyl)pyrrolo[1,2-a]quinoxalin-4(5H)-one], the Ki came to 51 nM.
Take `O=c1[nH]c2ccc(CN3CCOCC3)cc2n2cccc12` [Example 17, 8-(morpholin-4-ylmethyl)pyrrolo[1,2-a]quinoxalin-4(5H)-one]: the Ki came out at 130 nM.
In the case of `O=c1[nH]c2ccc(CNC3CCCC3)cc2n2cccc12` [Example 18, 8-((cyclopentylamino)methyl)pyrrolo[1,2-a]quinoxalin-4(5H)-one], the inhibition constant Ki stood at 79 nM.
Regarding `O=c1[nH]c2ccc(CN3CCCCC3)cc2n2cccc12` [Example 19, 8-(piperidin-1-ylmethyl)pyrrolo[1,2-a]quinoxalin-4(5H)-one], the Ki is 47 nM.
Same read-out and setting: the result for `O=c1[nH]c2ccc(CNCc3ccccc3)cc2n2cccc12` [Example 20, 8-((benzylamino)methyl)pyrrolo[1,2-a]quinoxalin-4(5H)-one] reads 131 nM.
Same read-out and setting: under `O=c1[nH]c2cc(CN3CCCC3)ccc2n2ccnc12` [Example 21, 7-(pyrrolidin-1-ylmethyl)imidazo[1,2-a]quinoxalin-4(5H)-one] stands 280 nM.
As for `O=c1[nH]c2cc(CN3CCCCC3)ccc2n2ccnc12` [Example 22, 7-(piperidin-1-ylmethyl)imidazo[1,2-a]quinoxalin-4(5H)-one], the Ki amounted to 330 nM.
In the case of `CN(C)Cc1ccc2c(c1)[nH]c(=O)c1nccn12` [Example 23, 7-((dimethylamino)methyl)imidazo[1,2-a]quinoxalin-4(5H)-one], the Ki amounted to 519 nM.
As for `O=c1[nH]c2cc(CNCC3CCCCC3)ccc2n2ccnc12` [Example 24, 7-(((cyclohexylmethyl)amino)methyl)imidazo[1,2-a]quinoxalin-4(5H)-one], the Ki was 5180 nM.
Consider `O=c1[nH]c2cc(CN3CCOCC3)ccc2n2ccnc12` [Example 25, 7-(morpholin4-ylmethyl)imidazo[1,2-a]quinoxalin-4(5H)-one], for which the inhibition constant (Ki) came out at 2850 nM.
As for `O=C1NCc2cc(CN3CCCC3)ccc2-n2cccc21` [Example 27, 8-(pyrrolidin-1-ylmethyl)-5,6-dihydro-4H-pyrrolo[1,2-a][1,4]benzodiazepin-4-one], the Ki was found to be 1120 nM.
For the compound `CC(C)NCc1ccc2c(c1)CNC(=O)c1cccn1-2` [Example 28, 8-((isopropylamino)methyl)-5,6-dihydro-4H-pyrrolo[1,2-a][1,4]benzodiazepin-4-one], the Ki was found to be 1470 nM.
Same read-out and setting: the result for `CN1CCN(Cc2ccc3c(c2)CNC(=O)c2cccn2-3)CC1` [Example 29, 8-((4-methylpiperazin-1-yl)methyl)-5,6-dihydro-4H-pyrrolo[1,2-a][1,4]benzodiazepin-4-one] reads 1500 nM; that for `O=C1NCc2cc(CNCC3CCCCC3)ccc2-n2cccc21` [Example 31, 8-(((cyclohexylmethyl)amino)methyl)-5,6-dihydro-4H-pyrrolo[1,2-a][1,4]benzodiazepin-4-one], 1490 nM.
As for `O=C1NCc2cc(CNCc3ccccc3)ccc2-n2cccc21` [Example 32, 8-((benzylamino)methyl)-5,6-dihydro-4H-pyrrolo[1,2-a][1,4]benzodiazepin-4-one], the Ki was 809 nM.
The same measure, in the same setting: under `O=C1NCc2cc(CNC3CCCC3)ccc2-n2cccc21` [Example 33, 8-((cyclopentylamino)methyl)-5,6-dihydro-4H-pyrrolo[1,2-a][1,4]benzodiazepin-4-one] stands 554 nM; under `O=C1Nc2cc(CNC3CCCCC3)ccc2N2CCCCC12` (centres unmarked) [Example 36, 3-[(cyclohexylamino)methyl]-7,8,9,10-tetrahydro-5H-pyrido[1,2-a]quinoxalin-6(6aH)-one], 3490 nM; under `O=C1Nc2cc(CN3CCCCC3)ccc2N2CCCCC12` (centres unmarked) [Example 37, 3-(piperidin-1-ylmethyl)-7,8,9,10-tetrahydro-5H-pyrido[1,2-a]quinoxalin-6(6aH)-one], 98 nM.
As for `CC(C)NCc1ccc2c(c1)NC(=O)C1CCCCN21` (centres unmarked) [Example 38, 3-[(isopropylamino)methyl]-7,8,9,10-tetrahydro-5H-pyrido[1,2-a]quinoxalin-6(6aH)-one], the Ki came out at 340 nM.
Still for that read-out and setting: the result for `CCN(C)Cc1ccc2c(c1)NC(=O)C1CCCCN21` (centres unmarked) [Example 39, 3-{[ethyl(methyl)amino]methyl}-7,8,9,10-tetrahydro-5H-pyrido[1,2-a]quinoxalin-6(6aH)-one] reads 71 nM; that for `CN(Cc1ccc2c(c1)NC(=O)C1CCCCN21)C1CCCCC1` (centres unmarked) [Example 40, 3-{[cyclohexyl(methyl)amino]methyl}-7,8,9,10-tetrahydro-5H-pyrido[1,2-a]quinoxalin-6(6aH)-one], 1500 nM.
As for `CC(C)N(C)Cc1ccc2c(c1)NC(=O)C1CCCCN21` (centres unmarked) [Example 41, 3-{[isopropyl(methyl)amino]methyl}-7,8,9,10-tetrahydro-5H-pyrido[1,2-a]quinoxalin-6(6aH)-one], the Ki was found to be 284 nM.
The same measure, in the same setting: under `CN1CCN(Cc2ccc3c(c2)NC(=O)C2CCCCN32)CC1` (centres unmarked) [Example 42, 3-[(4-methylpiperazin-1-yl)methyl]-7,8,9,10-tetrahydro-5H-pyrido[1,2-a]quinoxalin-6(6aH)-one] stands 7790 nM; under `O=C1Nc2cc(CN3CCCCC3)ccc2N2CCCC12` (centres unmarked) [Example 45, 7-(piperidin-1-ylmethyl)-1,2,3,3a-tetrahydropyrrolo[1,2-a]quinoxalin-4(5H)-one], 146 nM.
With `CCN(C)Cc1ccc2c(c1)NC(=O)C1CCCN21` (centres unmarked) [Example 46, 7-{[ethyl(methyl)amino]methyl}-1,2,3,3a-tetrahydropyrrolo[1,2-a]quinoxalin-4(5H)-one], the inhibition constant (Ki) was 130 nM.
Regarding `CN(Cc1ccc2c(c1)NC(=O)C1CCCN21)C1CCCCC1` (centres unmarked) [Example 47, 7-{[cyclohexyl(methyl)amino]methyl}-1,2,3,3a-tetrahydropyrrolo[1,2-a]quinoxalin-4(5H)-one], the Ki came out at 2160 nM.
On to `CN1CCN(Cc2ccc3c(c2)NC(=O)C2CCCN32)CC1` (centres unmarked) [Example 48, 7-[(4-methylpiperazin-1-yl)methyl]-1,2,3,3a-tetrahydropyrrolo[1,2-a]quinoxalin-4(5H)-one], for which the Ki is greater than 9500 nM.
Turning to `CN(Cc1ccccc1)Cc1ccc2c(c1)NC(=O)C1CCCN21` (centres unmarked) [Example 49, 7-{[benzyl(methyl)amino]methyl}-1,2,3,3a-tetrahydropyrrolo[1,2-a]quinoxalin-4(5H)-one], the inhibition constant (Ki) stood at 1350 nM.
For the compound `CC(C)N(C)Cc1ccc2c(c1)NC(=O)C1CCCN21` (centres unmarked) [Example 50, 7-{[isopropyl(methyl)amino]methyl}-1,2,3,3a-tetrahydropyrrolo[1,2-a]quinoxalin-4(5H)-one], the inhibition constant (Ki) worked out at 1960 nM.
The same measure, in the same setting: the result for `CS(=O)(=O)N(Cc1ccc2[nH]c(=O)c3cccn3c2c1)C1CC1` [Example 51, N-cyclopropyl-N-[(4-oxo4,5-dihydropyrrolo[1,2-a]quinoxalin-8-yl)methyl]methanesulfonamide] reads 779 nM; that for `O=C1CCCN1Cc1ccc2c(c1)[nH]c(=O)c1cccn12` [Example 52, 7-[(2-oxopyrrolidin-1-yl)methyl]pyrrolo[1,2-a]quinoxalin-4(5H)-one], 698 nM; that for `CCS(=O)(=O)N(Cc1ccc2[nH]c(=O)c3cccn3c2c1)C1CCC1` [Example 53, N-cyclobutyl-N-[(4-oxo-4,5-dihydropyrrolo[1,2-a]quinoxalin-8-yl)methyl]ethanesulfonamide], 917 nM.
As to `CC(C)N(Cc1ccc2[nH]c(=O)c3cccn3c2c1)S(=O)(=O)c1ccccc1` [Example 54, N-isopropyl-N-[(4-oxo-4,5-dihydropyrrolo[1,2-a]quinoxalin-8-yl)methyl]benzenesulfonamide], the inhibition constant (Ki) came out at 635 nM.
Still for that read-out and setting: under `CC(=O)N(Cc1ccc2c(c1)[nH]c(=O)c1cccn12)C1CCC1` [Example 55, N-cyclobutyl-N-[(4-oxo-4,5-dihydropyrrolo[1,2-a]quinoxalin-7-yl)methyl]acetamide] stands 1500 nM; under `CS(=O)(=O)N(Cc1ccc2c(c1)[nH]c(=O)c1cccn12)C1CC1` [Example 56, N-cyclopropyl-N-[(4-oxo-4,5-dihydropyrrolo[1,2-a]quinoxalin-7-yl)methyl]methanesulfonamide], 909 nM.

Usually Ki stands for a measure of affinity in units of concentration, obtained from inhibition or displacement.
